Laboratory results reported in paper PMC5047857, “Screening, production, optimization and characterization of β-glucosidase using microbes from shellfish waste” (3 Biotech, 2016).

Tested on: T1, β-glucosidase
T1 construct: gene EC 3.2.1.21; native extracellular enzyme, partially purified from culture (ammonium sulfate, dialysis, Sephadex gel filtration); approx. 50 kDa by SDS-PAGE
Assay: p-nitrophenol release, absorbance at […] nm; plot of activity against substrate concentration
Type: biochemical, Proteus mirabilis
Conditions: partially purified enzyme; substrate of the standard assay (pNPG); pH and temperature of the kinetic run not given

**Q.** O=[N+]([O-])c1ccc(O[C@@H]2O[C@H](CO)[C@@H](O)[C@H](O)[C@H]2O)cc1 [pNPG, p-Nitrophenyl-β-D-glucopyranoside] was tested. Which Km did it give?
**A.** 82 µM
